This note sets out measurements from US6730672B2, “Aminoheterocyclic derivatives as antithrombotic or anticoagulant agents” (Zeneca Limited, priority 1994, dated 2004).

As usually defined, the melting point is the temperature of the solid-liquid transition.

Each structure is given as a SMILES string.

As to `Cl.O=C(c1ccc(NS(=O)(=O)c2ccc(-c3ccc(Br)cc3)cc2)cc1)N1CCN(c2ccncc2)CC1`, the melting point was 201 to 205 °C. In the case of `O=C(C1CCN(c2ccncc2)CC1)N1CCN(S(=O)(=O)c2ccc3ccccc3c2)CC1` [Example 2, 1-(2-naphthylsulphonyl)-4-[1-(4-pyridyl)piperidin-4-ylcarbonyl]piperazine] it was 172 to 173 °C.

Consider `O=C(CNS(=O)(=O)c1ccc2ccccc2c1)NC(CNC(=O)N1CCN(c2ccncc2)CC1)C(=O)N1CCCCC1` (stereo not shown) [Example 3, 2-(2-naphthalenesulphonamido)-N-{1-piperidinocarbonyl-2-[4-(4-pyridyl)piperazin-1-ylcarbonylamino]-ethyl}acetamide], for which the melting point lay in the range of 223 to 226 °C. In the case of `O=C(CC1CCN(c2ccncc2)CC1)NCC(NC(=O)CNS(=O)(=O)c1ccc2ccccc2c1)C(=O)N1CCCCC1` (stereo not shown) [Example 4, 2-(2-naphthalenesulphonamido)-N-(1-piperidinocarbonyl-2-{2-[1-(4-pyridyl)piperidin-4-yl]acetamido}ethyl)acetamide] it was 148 to 149 °C.

In the case of `CCOC(=O)C(CNC(=O)C1CCN(c2ccncc2)CC1)NC(=O)CNS(=O)(=O)c1ccc2ccccc2c1` (stereo not shown) [Example 6, N-{1-ethoxycarbonyl-2-[1-(4-pyridyl)-piperidin-4-ylcarbonylamino]ethyl}-2-(2-naphthalenesulphonamido)-acetamide], the melting point fell in the range of 142 to 145 °C. Next, `O=C(CNS(=O)(=O)c1ccc2ccccc2c1)NC(CNC(=O)C1CCN(c2ccncc2)CC1)C(=O)O` (stereo not shown) [Example 9, 2-[2-(2-naphthalenesulphonamido)acetamido]-3-[1-(4-pyridyl)piperidin-4-ylcarbonylamino]propionic acid]: 108 to 111 °C (dec.); `O=C(CNS(=O)(=O)c1ccc2ccccc2c1)NCC(NC(=O)C1CCN(c2ccncc2)CC1)C(=O)N1CCCCC1` (stereo not shown) [Example 11, 2-(2-naphthalenesulphonamido)-N-{2-piperidinocarbonyl-2-[1-(4-pyridyl)piperidin-4-ylcarbonylamino]ethyl}acetamide]: 200 to 202 °C. Molecule `O=C(CNS(=O)(=O)c1ccc2ccccc2c1)N[C@@H](CC(=O)N1CCN(c2ccncc2)CC1)C(=O)N1CCCCC1` [Example 18, 2-(2-naphthalenesulphonamido)-N-{(1S)-1-(piperidinocarbonyl)-2-[4-(4-pyridyl)piperazin-1-ylcarbonyl]ethyl}-acetamide] registered a melting point of 201 to 203 °C. In the case of `O=C(CCNS(=O)(=O)c1ccc2ccccc2c1)NC(CNC(=O)C1CCN(c2ccncc2)CC1)C(=O)N1CCCCC1` (stereo not shown) [Example 20, 3-(2-naphthalenesulphonamido)-N-{1-(piperidinocarbonyl)-2-[1-(4-pyridyl)piperidin-4-ylcarbonylamino]ethyl}propionamide] it was 201 to 203 °C; in that of `Cc1ccc(NC(=O)NC(CNC(=O)C2CCN(c3ccncc3)CC2)C(=O)N2CCCCC2)cc1` (stereo not shown) [Example 22, N-{2-piperidinocarbonyl-2-[3-(4-tolyl)ureido]ethyl}-1-(4-pyridyl)-piperidine-4-carboxamide], 252 to 253 °C; in that of `O=C(CNS(=O)(=O)c1ccc2ccccc2c1)NCCNC(=O)C1CCN(c2ccncc2)CC1` [Example 30, 2-(2-naphthalenesulphonamido)-N-{2-[1-(4-pyridyl)piperidin-4-ylcarbonylamino]ethyl}acetamide], 107 to 109 °C.

As to `O=C(CNS(=O)(=O)c1ccc2ccccc2c1)NCCNC(=O)C1CCN(c2ccncn2)CC1` [Example 32, 2-(2-naphthalenesulphonamido)-N-{2-[1-(4-pyrimidinyl)piperidin-4-ylcarbonylamino]ethyl}acetamide], the melting point was in the range of 178 to 179 °C. Next, `Cc1cc(N2CCC(C(=O)NCCNC(=O)CNS(=O)(=O)c3ccc4ccccc4c3)CC2)nc(N)n1` [Example 34, N-{2-[1-(2-amino-6-methylpyrimidin-4-yl)piperidin-4-ylcarbonylamino]ethyl}-2-(2-naphthalenesulphonamido)acetamide]: 225 to 226 °C; `O=C(O)C1CN(C(=O)C2CCN(c3ccncc3)CC2)CCN1S(=O)(=O)c1ccc2ccccc2c1` (stereo not shown) [Example 43, 1-(2-naphthylsulphonyl)-4-[1-(4-pyridyl)piperidin-4-ylcarbonyl]-piperazine-2-carboxylic acid]: 188 to 193 °C; `O=C(C1CCN(c2ccncc2)CC1)N1CCCN(S(=O)(=O)c2ccc3ccccc3c2)CC1` [Example 49, 1-(2-naphthylsulphonyl)-4-[1-(4-pyridyl)piperidin-4-ylcarbonyl]-1,4-diazepane]: 178 to 180 °C. Next, `O=C(N1CCN(c2ccncc2)CC1)N1CCN(S(=O)(=O)c2ccc3ccccc3c2)CC1` [Example 50, 1-(2-naphthylsulphonyl)-4-[4-(4-pyridyl)-piperazin-1-ylcarbonyl]piperazine]: 210 to 212 °C; `O=C(C1CCN(c2ccncn2)CC1)N1CCN(S(=O)(=O)c2ccc3ccccc3c2)CC1` [Example 55, 1-(2-naphthylsulphonyl)-4-[1-(4-pyrimidinyl)piperidin-4-ylcarbonyl]-piperazine]: 203 to 205 °C. `O=C(C1CCN(c2ccncn2)CC1)N1CCN(S(=O)(=O)/C=C/c2ccc(Cl)cc2)CC1` [Example 57, 1-[(E)-4-chlorostyrylsulphonyl]-4-[1-(4-pyrimidinyl)piperidin-4-ylcarbonyl]piperazine] yielded a melting point of 209 to 210 °C.

`Cc1ccc(-c2ccc(S(=O)(=O)N3CCN(C(=O)C4CCN(c5ccncc5)CC4)CC3)cc2)cc1` [Example 58, 1-(4′-methylbiphenyl-4-ylsulphonyl)-4-[1-(4-pyridyl)piperidin-4-ylcarbonyl]piperazine] gave a melting point of 213 to 217 °C. Next, `O=C(C1CCN(c2ccncc2)CC1)N1CCN(S(=O)(=O)c2ccc(-c3ccccn3)cc2)CC1` [Example 60, 1-[4-(2-pyridyl)phenylsulphonyl]-4-[1-(4-pyridyl)piperidin-4-ylcarbonyl]piperazine]: 224 to 226 °C; `O=C(O)C1CN(S(=O)(=O)c2ccc3ccccc3c2)CCN1C(=O)C1CCN(c2ccncc2)CC1` (stereo not shown) [Example 61, 2-carboxy-4-(2-naphthylsulphonyl)-1-[1-(4-pyridyl)piperidin-4-ylcarbonyl]piperazine]: 225 to 228 °C (dec.); `O=C(C1CCN(c2ccncc2)CC1)N1CCN(S(=O)(=O)c2ccc3ccccc3c2)C(Cc2ccccc2)C1` (stereo not shown) [Example 66, 2-benzyl-1-(2-naphthylsulphonyl)-4-[1-(4-pyridyl)piperidin-4-ylcarbonyl]piperazine]: 186 to 188 °C. Next, `O=C(C1CCN(c2ccncn2)CC1)N1CCN(S(=O)(=O)c2ccc3cc(Cl)ccc3c2)CC1` [Example 69, 1-(6-chloronaphth-2-ylsulphonyl)-4-[1-(4-pyrimidinyl)-piperidin-4-ylcarbonyl]piperazine]: 218 to 219 °C; `Nc1nccc(N2CCC(C(=O)N3CCN(S(=O)(=O)c4ccc5cc(Cl)ccc5c4)CC3)CC2)n1` [Example 70, 4-[1-(2-aminopyrimidin-4-yl)piperidin-4-ylcarbonyl]-1-(6-chloronaphth-2-ylsulphonyl)piperazine]: 265 to 267 °C.

For the molecule `O=C(C1CCN(c2nc(Cl)nc(Cl)n2)CC1)N1CCN(S(=O)(=O)c2ccc3cc(Cl)ccc3c2)CC1` [Example 73, 1-(6-chloronaphth-2-ylsulphonyl)-4-[1-(4,6-dichloro-1,3,5-triazin-2-yl)piperidin-4-ylcarbonyl]piperazine], the melting point was in the range of 230 to 233 °C. Next, `CCOC(=O)C1CN(S(=O)(=O)c2ccc3cc(Br)ccc3c2)CCN1C(=O)C1CCN(c2ccncc2)CC1` (stereo not shown) [Example 82, 4-(6-bromonaphth-2-ylsulphonyl)-2-ethoxycarbonyl-1-[1-(4-pyridyl)-piperidin-4-ylcarbonyl]piperazine]: 117 to 121 °C; `O=C(O)C1CN(S(=O)(=O)c2ccc3cc(Br)ccc3c2)CCN1C(=O)C1CCN(c2ccncc2)CC1` (stereo not shown) [Example 83, 4-(6-bromonaphth-2-ylsulphonyl)-2-carboxy-1-[1-(4-pyridyl)piperidin-4-ylcarbonyl]piperazine]: 216 to 222 °C (dec.). Next, `O=C(C1CN(S(=O)(=O)c2ccc3cc(Br)ccc3c2)CCN1C(=O)C1CCN(c2ccncc2)CC1)N1CCOCC1` (stereo not shown) [Example 84, 4-(6-bromonaphth-2-ylsulphonyl)-2-morpholinocarbonyl-1-[1-(4-pyridyl)-piperidin-4-ylcarbonyl]piperazine]: 235 to 237 °C; `Cc1cc(N2CCC(C(=O)N3CCN(S(=O)(=O)c4ccc5cc(Cl)ccc5c4)CC3)CC2)nc(N)n1` [Example 86, 4-[1-(2-amino-6-methylpyrimidin-4-yl)piperidin-4-ylcarbonyl]-1-(6-chloronaphth-2-ylsulphonyl)piperazine]: 210 to 212 °C. On to `O=C(c1ccc(NS(=O)(=O)/C=C/c2ccc(Cl)cc2)cc1)N1CCN(c2ccncc2)CC1` [Example 89, N-{4-[4-(4-pyridyl)piperazin-1-ylcarbonyl]phenyl}-(E)-4-chlorostyrenesulphonamide], for which the melting point lay within 207 to 209 °C. Next, `O=C(C1CCN(S(=O)(=O)c2ccc3cc(Br)ccc3c2)CC1)N1CCN(c2ccncc2)CC1` [Example 92, 1-[1-(6-bromonaphth-2-ylsulphonyl)piperidin-4-ylcarbonyl]-4-(4-pyridyl)piperazine]: 229 to 230 °C.
